Consider 2 molecules from article PMC12677652, “Procyanidin B3 and Its Derivatives Alleviate Neuronal Injury by Targeting G3BP1 for Ischemic Stroke Therapy” (Advanced Science, 2025).

Series [1] concerns tMCAO mice. The series can be described thus: tMCAO model in mice (neurological deficit score, infarct volume, apoptosis, SG level). It is filed as in vivo. To be noted: for SG levels in the ischemic cortex / ischemic brain tissue: 48 mg kg^−1, i.p. Here is the method: Mice were kept anesthetized during surgery with 1% pentobarbital sodium (50 mg kg^−1, Sigma‐Aldrich, USA) by i.p. injection. Transient ischemia was induced by using the suture occlusion technique according to our previous studies.^[ [10] ^] Expose the common carotid artery area, insert a 6–0 sized silicon rubber‐coated filament into the left internal carotid artery until it reaches the approximate branch of the left middle cerebral artery, and leave it for 1–1.5 h to block blood flow. Then, the suture and the filament were removed, and the wounds were sutured. 24 h after the operation, a series of phenotypic evaluations was conducted on each mouse. The Bederson score was applied according to our previous studies.^[ [10] ^]
(§1) Apoptosis level was evaluated by TUNEL staining and flow cytometry. For TUNEL staining, HT22 cells were treated with 4% paraformaldehyde for 15 min. Then the fixed brain tissue slices and HT22 cells were permeabilized for 5 min using 1% Triton X‐100 (Sigma‐Aldrich, USA) dissolved in PBS. TUNEL staining was executed by following the instructions, using a one‐step TUNEL apoptosis assay kit (Meilunbio, China). Red fluorescence was utilized to identify apoptotic cells, while 4′, 6‐diamidino‐2‐phenylindole (DAPI) was used to counterstain the nuclei. The fluorescence microscope (Carl Zeiss, Germany) was used to obtain images. For flow cytometry, apoptotic cells were determined with the Annexin V‐Alexa Fluor 488/PI apoptosis detection kit (Yeasen, China) by following the instructions. EDTA‐free trypsin (Gibco, USA) was added to HT22 cells (2.5 × 10^5 cells). The cells were collected and washed with pre‐cooling PBS 2 times, then suspended in 250 µL 1× binding buffer. 100 µL cell suspension was dyed with 5 µL Annexin V‐Alexa Fluor 488 and 10 µL PI and plunged into darkness at room temperature for 15 min. Then the cell suspension was mixed with 400 µL of 1× binding buffer. Cell apoptosis was immediately determined by Cytek Aurora (Cytek Biosciences, USA).
(§2) Cells and tissues were homogenized in RIPA buffer (Beyotime, China) containing protease inhibitors (Biovision, USA) on ice for 30 min. After centrifugation (13000 r min^−1, 4 °C) for 10 min, the resulting supernatant was collected. The protein concentrations were determined by a BCA protein assay kit (Thermo Scientific, USA). After separating a 10% sodium dodecyl sulfate (SDS)‐polyacrylamide gel, protein on the gel was then transferred onto nitrocellulose membranes (Merck, USA), which were blocked with 5% bovine serum albumin for 1 h to prevent non‐specific binding. Then, the anti‐caspase 3 antibody (catalog no. 9662, Cell Signaling Technology, USA), anti‐Bcl‐2 antibody (catalog no. GTX100064, GeneTex, USA), anti‐G3BP1 antibody (catalog no. 66486‐1‐Ig, Proteintech, China), anti‐β‐tubulin antibody (catalog no. 66240‐1‐Ig, Proteintech, China), and anti‐β‐actin antibody (catalog no. 66009‐1‐Ig, Proteintech, China) were used for treating the membrane overnight at 4 °C. Bound antibodies were detected with the species‐appropriate horseradish peroxidase‐labeled secondary antibody (Jackson ImmunoResearch, USA) using ECL reagents (ShareBio, China). Protein‐specific signals were detected using a Bio‐Rad Imager (Bio‐Rad, USA), and the bands were quantified by densitometric analysis software (ImageJ). β‐tubulin or β‐actin was used as a loading control.
Cerebral infarction volume was evaluated by Nissl staining or 2,3,5‐triphenyltetrazolium chloride staining. The infarct volume was computed using image‐processing software (Image J), and the percentage of the infarct volume was calculated according to our previous studies.^[ [10] ^] For Nissl staining, the fixed brain tissue slices were washed twice with ultrapure water for 2 min each time. Next, they were stained with Nissl staining solution (Beyotime, China) at 37 °C for 10 min, washed twice with ultrapure water, washed once with 95% ethanol, and washed twice with 70% ethanol. […]

A short description of series [2]: Pharmacokinetic study in mice, i.p. injection. The note with it: C57BL/6, mouse, ip, 48 mg kg^−1 i.p., plasma, mean ± S.D., n = 3. It is filed as in vivo. Here is the method:
Pharmacokinetic analyses were performed using a LC‐40D XS HPLC system (Shimadzu, Japan) coupled with a Sciex Triple Quad 5500 mass spectrometer (AB SCIEX, USA). Tested compounds PB3 and 6c were administered by i.p. injection (48 mg kg^−1, formulation solvent: normal saline). Blood samples were drawn from the retro‐orbital vein at 0.083, 0.25, 0.5, 1, 2, 4, 8, and 24 h post‐injection with EDTA dipotassium salt as an anticoagulant. Subsequently, the plasma fractions were collected in Eppendorf tubes and centrifuged at 4000 g for 5 min at 4 °C and stored at −80 °C for analysis. Brain tissue was mixed with four‐fold normal saline for homogenization (10 s per time with a 10 s interval for 3–5 times). Then, the mixture was centrifuged at 4000 g for 5 min at 4 °C, and the supernatant was stored at −80 °C for analysis. For sample preparation, the desired serial concentrations of working solutions were achieved by diluting a stock solution of analyte with 50% methanol in water solution. 2 µL of working solutions were added to 10 µL of the blank C57BL/6 mouse plasma/brain homogenate to achieve calibration standards of 10–10 000 ng mL^−1 (10, 20, 100, 200, 1000, 2000, 4000, 10 000 ng mL^−1) in a total volume of 12 µL. Three quality control samples at 20 ng mL^−1, 1600 ng mL^−1, and 8000 ng mL^−1 for plasma were prepared independently of those used for the calibration curves. These QC samples were prepared on the day of analysis in the same way as calibration standards.

Series [3] concerns Primary rat cortical neurons. The series can be described thus: Cytotoxicity (50% cytotoxic concentration) by CCK-8 assay. In kind it is cell-based. To be noted: 24 h exposure. Here is the method:
Additionally, we investigated the effects of PB3, 6c, and EDA on apoptosis at a concentration of 50 µM. […] Therefore, the improvement in target accessibility could be one of the main reasons for the enhanced activity of 6c. The binding mode of 6c and the NTF2L domain of G3BP1 was analyzed by molecular docking (Figure S10B, Supporting Information). […] Cytotoxicities of 1 and 6c were determined by the detection of 50% cytotoxic concentration using the CCK‐8 assay. Primary rat cortical neurons ^[ [10] ^] were exposed to 200 µM gradient concentrations of compounds for 24 h.

The subject of series [4] is HT22 cells under OGD/R injury. The series is described as follows: Apoptosis level of HT22 cells under OGD/R (TUNEL staining and immunoblotting). In kind it is cell-based. The method, then:
HT22 cells were washed with phosphate buffered saline (PBS), then DMEM sugar‐free medium (Gibco, USA) was added and placed in the anaerobic incubator of 5% CO2, 1% O2, and 37 °C for 6 h. PB3 or other compounds were previously dissolved in DMEM/F‐12 with 10% FBS and 1% penicillin/streptomycin. After undergoing OGD for 6 h, the medium was replaced by DMEM/F‐12 with 10% FBS and 1% penicillin/streptomycin containing PB3 or other compounds and kept in a humidified 5% CO2, 37 °C incubator for 24 h.
as §1, §2

[5] abbreviates: 48 mg kg^−1 i.p., compared to the model group.
Setting [6] is: 50 and 100 µM, compared with the model group.
[7] abbreviates: 50 µM, compared with the model group.

Regarding `Oc1cc(O)c2c(c1)O[C@H](c1ccc(O)c(O)c1)[C@@H](O)[C@@H]2c1c(O)cc(O)c2c1O[C@H](c1ccc(O)c(O)c1)[C@@H](O)C2` [Compound 1, procyanidin B3], the “SG levels in the ischemic cortex / ischemic brain tissue” value in series [1] is “significantly enhanced SG levels”. In series [1] (48 mg kg^−1 i.p., 1.5 h MCAO, 24 h after reperfusion), the neurological deficit score entry is “improved neurological deficits”. Moreover, the infarct volume result in series [1] (48 mg kg^−1 i.p., 1.5 h MCAO, 24 h reperfusion, Nissl staining) was “significantly reduced”. For the same molecule, in series [1] (setting [5]), the “apoptosis level (TUNEL staining of frozen brain sections)” value is on record as “significantly reduced”, the “expression level of Bcl‐2 in the ischemic cortex” value is on record as “increased” and the “expression level of cleaved caspase‐3 in the ischemic cortex” value is given as “decreased”. In addition, in series [2], the AUC(0-inf) was determined as 22300 ± 1970 ng·h/mL, the AUC(0-t) turned out to be 22200 ± 1940 ng·h/mL, the Cmax was 30400 ± 1790 ng/mL and the MRT inf came out at 1.42 ± 0.06 h. The half-life in series [2] was 266 ± 20.4 min. The 50% cytotoxic concentration result in series [3] is “over 200 µM”. Moreover, in series [4] (setting [6]), the “expression of Bcl‐2” value is listed as “significantly increased” and the “expression of cleaved caspase‐3” value is listed as “significantly decreased”. The “rate of TUNEL‐positive cells” value in series [4] (HT22, OGD/R, different concentrations) is on record as “dose‐dependently reduced”.

On to `CC(C)c1c(O)cc(O)c2c1O[C@H](c1ccc(O)c(O)c1)[C@@H](O)[C@@H]2c1c(O)cc(O)c2c1O[C@H](c1ccc(O)c(O)c1)[C@@H](O)C2` [Compound 6c, 8‐Isopropyl‐(+)‐Catechin‐(4α,8)‐(+)‐Catechin], for which the “SG levels in the ischemic cortex / ischemic brain tissue” value in series [1] is reported as “mediate SG upregulation”. In addition, the “neuroprotective activity compared with the model group” value in series [1] (48 mg kg^−1, 1.5 h of MCAO and 24 h of reperfusion) is on record as “best neuroprotective activity”. In series [1] (1 h ischemia, i.p. injection after reperfusion, 24 h after reperfusion), the “reduction of infarct volume” value is “≈ 30%”. In series [1] (1 h ischemia, i.p. injection after reperfusion, 24 h after reperfusion, preliminary screening), the neurological deficit score result is given as “more pronounced trend toward improving neurological deficits”. Also, the “infarct area and neurological function at different doses” value in series [1] (1.5 h of MCAO and 24 h of reperfusion) is “therapeutic effect on ischemic injury in a dose‐dependent manner”. Also, in series [2], the AUC(0-inf) stood at 10400 ± 1280 ng·h/mL, the AUC(0-t) worked out at 10200 ± 1250 ng·h/mL, the highest level (Cmax) was 25200 ± 2500 ng/mL and the mean residence time MRT inf came to 0.76 ± 0.03 h. This molecule gave a half-life in series [2] of 121 ± 15.6 min. For the same molecule, the 50% cytotoxic concentration entry in series [3] was “over 200 µM”. In series [4] (setting [7]), the “expression of Bcl‐2” value is “increase the expression of Bcl‐2”, the “expression of cleaved caspase‐3” value is reported as “decrease the expression of cleaved caspase‐3” and the “rate of TUNEL‐positive cells” value was “reduce the rate of TUNEL‐positive cells”.
